Source: patent US20260116920A1, “HUMAN TRANSFERRIN RECEPTOR BINDING PEPTIDE” (PEPTIDREAM INC., priority 2021, published 2026)
Positions of bridges follow the written chain, without caps; N, C: chain ends. Non-standard residues stand in square brackets, D forms with d. Residues, ends and D or L forms follow the SMILES beside them. *: point of attachment. Trp(1-CH2COOH) = N[C@@H](Cc1cn(CC(=O)O)c2ccccc12)C(=O)O; Nle(6-morpholino) = N[C@@H](CCCCN1CCOCC1)C(=O)O; NMePhe(3-Cl) = CN[C@@H](Cc1cccc(Cl)c1)C(=O)O; NMeY = CN[C@@H](Cc1ccc(O)cc1)C(=O)O; PEG4 = NCCOCCOCCOCCOCCC(=O)O; Carboxymethyl = O=C(O)C*

Molecular target: T1, human transferrin receptor (hTfR) (Homo sapiens, UniProt P02786)
T1 construct: made in house
T1 sequence (P02786 89-760 limits assumed): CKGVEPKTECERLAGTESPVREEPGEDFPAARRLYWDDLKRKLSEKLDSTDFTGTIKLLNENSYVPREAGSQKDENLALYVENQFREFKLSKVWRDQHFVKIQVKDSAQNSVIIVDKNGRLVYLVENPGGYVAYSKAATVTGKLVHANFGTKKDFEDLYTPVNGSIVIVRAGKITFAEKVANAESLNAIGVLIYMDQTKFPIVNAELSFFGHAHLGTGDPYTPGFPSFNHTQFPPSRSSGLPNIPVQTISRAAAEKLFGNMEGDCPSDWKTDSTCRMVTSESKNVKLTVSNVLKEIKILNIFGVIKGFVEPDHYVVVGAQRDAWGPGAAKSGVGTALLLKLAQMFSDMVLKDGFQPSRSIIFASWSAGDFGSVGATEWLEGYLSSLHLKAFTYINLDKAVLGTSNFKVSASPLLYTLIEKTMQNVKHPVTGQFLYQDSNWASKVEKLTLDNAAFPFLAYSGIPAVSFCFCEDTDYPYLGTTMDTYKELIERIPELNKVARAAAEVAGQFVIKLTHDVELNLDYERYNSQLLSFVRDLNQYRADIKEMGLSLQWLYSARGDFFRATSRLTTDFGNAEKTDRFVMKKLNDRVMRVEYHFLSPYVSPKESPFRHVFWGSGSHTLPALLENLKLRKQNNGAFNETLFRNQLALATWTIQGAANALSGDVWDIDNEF
Test: Evaluation of molecular interaction between transferrin receptor (hTfR) and peptide using surface plasmon resonance (SPR)
Format: binding
Conditions: KD class for binding to hTfR by SPR; peptide with the linker shown in the same line; 'low signal indicates no activity'; read-out: SPR
How it was run: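 SPR, single-cycle kinetics; hTfR dimer on NTA chip via Ni capture plus EDC/NHS coupling. Analyte peptide 100, 50, 25, 10, 5 nM. Running buffer: 10 mM HEPES pH 8.0, 150 mM NaCl, 0.05% Tween 20, 0.1% BSA, 1.0% DMSO. KD by least-squares fit.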

Row | SMILES | Kd [nM]
1 | CC[C@H](C)[C@@H]1NC(=O)[C@H](Cc2ccc(OCC(=O)O)cc2)NC(=O)[C@H](Cc2ccc(O)cc2)NC(=O)[C@H](CC(N)=O)NC(=O)[C@H](Cc2cn(CC(=O)O)c3ccccc23)NC(=O)[C@H](C(C)C)NC(=O)[C@H](Cc2cccc(Cl)c2)N(C)C(=O)[C@H](C(C)C)NC(=O)[C@H](C)NC(=O)CSC[C@@H](C(=O)NCCOCCOCCOCCOCCC(N)=O)NC(=O)[C@H](Cc2ccc(O)cc2)N(C)C(=O)[C@H](Cc2ccccc2)NC(=O)[C@H](CCCCN2CCOCC2)NC(=O)[C@H](CCCCN2CCOCC2)NC(=O)[C@H]([C@@H](C)CC)NC1=O [894_0390] ({CH2CO}-AV[NMePhe(3-Cl)]V[Trp(1-CH2COOH)]NYY(Carboxymethyl)II[Nle(6-morpholino)][Nle(6-morpholino)]F[NMeY]C[PEG4]-NH2; thioether N-15) | < 1
2 | CC[C@H](C)[C@@H]1NC(=O)[C@H](Cc2ccc(O)cc2)NC(=O)[C@H](Cc2ccc(O)cc2)NC(=O)[C@H](CC(N)=O)NC(=O)[C@H](Cc2c[nH]c3ccc(Cl)cc23)NC(=O)[C@H](C(C)C)NC(=O)[C@H](Cc2ccccc2)N(C)C(=O)[C@H](C(C)C)NC(=O)[C@H](C)NC(=O)CSC[C@@H](C(=O)NCC(=O)N[C@@H](CCCCN=[N+]=[N-])C(N)=O)NC(=O)[C@H](Cc2ccc(O)cc2)N(C)C(=O)[C@H](Cc2ccccc2)NC(=O)[C@H](CCCNC(=N)N)NC(=O)[C@H](CCCNC(=N)N)NC(=O)[C@H]([C@@H](C)CC)NC1=O [894_3153] | 1 to 100
3 | CC[C@H](C)[C@@H]1NC(=O)[C@H](Cc2ccc(OC)cc2)NC(=O)[C@H](Cc2ccc(O)cc2)NC(=O)[C@H](CC(N)=O)NC(=O)[C@H](Cc2c[nH]c3ccc(Cl)cc23)NC(=O)[C@H](C(C)C)NC(=O)[C@H](Cc2ccccc2)N(C)C(=O)[C@H](C(C)C)NC(=O)[C@H](C)NC(=O)CSC[C@@H](C(=O)NCC(=O)N[C@@H](CCCCN=[N+]=[N-])C(N)=O)NC(=O)[C@H](Cc2ccc(O)cc2)N(C)C(=O)[C@H](Cc2ccccc2)NC(=O)[C@H](CCCNC(=N)N)NC(=O)[C@H](CCCNC(=N)N)NC(=O)[C@H]([C@@H](C)CC)NC1=O [894_3154] | 1 to 100
4 | CC[C@H](C)[C@@H]1NC(=O)[C@H](Cc2ccc(OC)cc2)NC(=O)[C@H](Cc2ccc(O)cc2)NC(=O)[C@H](CC(N)=O)NC(=O)[C@H](Cc2c[nH]c3ccc(Cl)cc23)NC(=O)[C@H](C(C)C)NC(=O)[C@H](Cc2ccccc2)N(C)C(=O)[C@H](C(C)C)NC(=O)[C@H](C)NC(=O)CSC[C@@H](C(=O)NCC(=O)N[C@@H](CCCCN=[N+]=[N-])C(N)=O)NC(=O)[C@H](Cc2ccc(O)cc2)N(C)C(=O)[C@H](Cc2ccccc2)NC(=O)[C@@H](CCCNC(=N)N)NC(=O)[C@H](CCCNC(=N)N)NC(=O)[C@H]([C@@H](C)CC)NC1=O [894_3155] | 1 to 100
5 | CC[C@H](C)[C@@H]1NC(=O)[C@H](Cc2ccc(OC)cc2)NC(=O)[C@H](Cc2ccc(O)cc2)NC(=O)[C@H](CC(N)=O)NC(=O)[C@H](Cc2c[nH]c3ccc(Cl)cc23)NC(=O)[C@H](C(C)C)NC(=O)[C@H](Cc2ccc(F)cc2)N(C)C(=O)[C@H](C(C)C)NC(=O)[C@H](C)NC(=O)CSC[C@@H](C(=O)NCC(=O)N[C@@H](CCCCN=[N+]=[N-])C(N)=O)NC(=O)[C@H](Cc2ccc(O)cc2)N(C)C(=O)[C@H](Cc2ccccc2)NC(=O)[C@H](CCCNC(=N)N)NC(=O)[C@H](CCCNC(=N)N)NC(=O)[C@H]([C@@H](C)CC)NC1=O [894_3156] | 1 to 100
6 | CC[C@H](C)[C@@H]1NC(=O)[C@H](Cc2ccc(OC)cc2)NC(=O)[C@H](Cc2ccc(O)cc2)NC(=O)[C@H](CC(N)=O)NC(=O)[C@H](Cc2c[nH]c3ccc(Cl)cc23)NC(=O)[C@H](C(C)C)NC(=O)[C@H](Cc2ccc(F)cc2)N(C)C(=O)[C@H](C(C)C)NC(=O)[C@H](C)NC(=O)CSC[C@@H](C(=O)NCC(=O)N[C@@H](CCCCN=[N+]=[N-])C(N)=O)NC(=O)[C@H](Cc2ccc(O)cc2)N(C)C(=O)[C@H](Cc2ccccc2)NC(=O)[C@@H](CCCNC(=N)N)NC(=O)[C@H](CCCNC(=N)N)NC(=O)[C@H]([C@@H](C)CC)NC1=O [894_3157] | 100 to 1000
7 | CC[C@H](C)[C@@H]1NC(=O)[C@H](Cc2ccc(OC)cc2)NC(=O)[C@H](Cc2ccc(O)cc2)NC(=O)[C@H](CC(N)=O)NC(=O)[C@H](Cc2c[nH]c3ccccc23)N(C)C(=O)[C@H](C(C)C)NC(=O)[C@H](Cc2ccncc2)N(C)C(=O)[C@H](C(C)C)NC(=O)[C@H](C)NC(=O)CSC[C@@H](C(=O)NCC(=O)N[C@@H](CCCCN=[N+]=[N-])C(N)=O)NC(=O)[C@H](Cc2ccc(O)cc2)N(C)C(=O)[C@H](Cc2ccccc2)NC(=O)[C@@H](CCCNC(=N)N)NC(=O)[C@H](CCCNC(=N)N)NC(=O)[C@H]([C@@H](C)CC)NC1=O [894_3158] | 1 to 100

More lines, now with the values ahead:

Row | Kd [nM] | SMILES
8 | 100 to 1000 | CC[C@H](C)[C@@H]1NC(=O)[C@H](Cc2ccc(OC)cc2)NC(=O)[C@H](Cc2ccc(O)cc2)NC(=O)[C@H](CC(N)=O)NC(=O)[C@H](Cc2c[nH]c3ccccc23)N(C)C(=O)[C@H](C(C)C)NC(=O)[C@H](Cc2cccc(C(=O)O)c2)N(C)C(=O)[C@H](C(C)C)NC(=O)[C@H](C)NC(=O)CSC[C@@H](C(=O)NCC(=O)N[C@@H](CCCCN=[N+]=[N-])C(N)=O)NC(=O)[C@H](Cc2ccc(O)cc2)N(C)C(=O)[C@H](Cc2ccccc2)NC(=O)[C@@H](CCCNC(=N)N)NC(=O)[C@H](CCCNC(=N)N)NC(=O)[C@H]([C@@H](C)CC)NC1=O [894_3159]
9 | 100 to 1000 | CC[C@H](C)[C@@H]1NC(=O)[C@H](Cc2ccc(O)cc2)NC(=O)[C@H](Cc2ccc(O)cc2)NC(=O)[C@H](C)NC(=O)[C@H](Cc2c[nH]c3ccccc23)NC(=O)[C@H](C(C)C)NC(=O)[C@H](Cc2ccccc2)N(C)C(=O)[C@H](C(C)C)NC(=O)[C@H](C)NC(=O)CSC[C@@H](C(=O)NCC(=O)N[C@@H](CCCCN=[N+]=[N-])C(N)=O)NC(=O)[C@H](Cc2ccc(O)cc2)N(C)C(=O)[C@H](Cc2ccc(O)cc2)NC(=O)[C@H](CCCNC(=N)N)NC(=O)[C@H](CCCNC(=N)N)NC(=O)[C@H]([C@@H](C)CC)NC1=O [894_3160]
10 | 1 to 100 | CC[C@H](C)[C@@H]1NC(=O)[C@H](Cc2ccc(O)cc2)NC(=O)[C@H](Cc2ccc(O)cc2)NC(=O)[C@H](CC(N)=O)NC(=O)[C@H](Cc2c[nH]c3ccc(Cl)cc23)NC(=O)[C@H](C(C)C)NC(=O)[C@H](Cc2ccccc2)N(C)C(=O)[C@H](C(C)C)NC(=O)[C@H](C)NC(=O)CSC[C@@H](C(=O)NCC(=O)N[C@@H](CCCCN=[N+]=[N-])C(N)=O)NC(=O)[C@H](Cc2ccc(O)cc2)N(C)C(=O)[C@H](Cc2ccc(O)cc2)NC(=O)[C@H](CCCNC(=N)N)NC(=O)[C@H](CCCNC(=N)N)NC(=O)[C@H]([C@@H](C)CC)NC1=O [894_3161]
11 | 1 to 100 | CC[C@H](C)[C@@H]1NC(=O)[C@H](Cc2ccc(OC)cc2)NC(=O)[C@H](Cc2ccc(O)cc2)NC(=O)[C@H](CC(N)=O)NC(=O)[C@H](Cc2c[nH]c3ccc(Cl)cc23)NC(=O)[C@H](C(C)C)NC(=O)[C@H](Cc2ccccc2)N(C)C(=O)[C@H](C(C)C)NC(=O)[C@H](C)NC(=O)CSC[C@@H](C(=O)NCC(=O)N[C@@H](CCCCN=[N+]=[N-])C(N)=O)NC(=O)[C@H](Cc2ccc(O)cc2)N(C)C(=O)[C@H](Cc2ccc(O)cc2)NC(=O)[C@H](CCCNC(=N)N)NC(=O)[C@H](CCCNC(=N)N)NC(=O)[C@H]([C@@H](C)CC)NC1=O [894_3162]
12 | 1 to 100 | CC[C@H](C)[C@@H]1NC(=O)[C@H](Cc2ccc(OC)cc2)NC(=O)[C@H](Cc2ccc(O)cc2)NC(=O)[C@H](CC(N)=O)NC(=O)[C@H](Cc2c[nH]c3ccc(Cl)cc23)NC(=O)[C@H](C(C)C)NC(=O)[C@H](Cc2ccc(F)cc2)N(C)C(=O)[C@H](C(C)C)NC(=O)[C@H](C)NC(=O)CSC[C@@H](C(=O)NCC(=O)N[C@@H](CCCCN=[N+]=[N-])C(N)=O)NC(=O)[C@H](Cc2ccc(O)cc2)N(C)C(=O)[C@H](Cc2ccc(O)cc2)NC(=O)[C@H](CCCNC(=N)N)NC(=O)[C@H](CCCNC(=N)N)NC(=O)[C@H]([C@@H](C)CC)NC1=O [894_3163]
13 | 1 to 100 | CC[C@H](C)[C@@H]1NC(=O)[C@H](Cc2ccc(OC)cc2)NC(=O)[C@H](Cc2ccc(O)cc2)NC(=O)[C@H](CC(N)=O)NC(=O)[C@H](Cc2c[nH]c3ccccc23)NC(=O)[C@H](C(C)C)NC(=O)[C@H](Cc2cccc(Cl)c2)N(C)C(=O)[C@H](C(C)C)NC(=O)[C@H](C)NC(=O)CSC[C@@H](C(=O)NCC(=O)N[C@@H](CCCCN=[N+]=[N-])C(N)=O)NC(=O)[C@H](Cc2ccc(O)cc2)N(C)C(=O)[C@H](Cc2ccc(O)cc2)NC(=O)[C@H](CCCNC(=N)N)NC(=O)[C@H](CCCNC(=N)N)NC(=O)[C@H]([C@@H](C)CC)NC1=O [894_3164]
14 | 1 to 100 | CC[C@H](C)[C@@H]1NC(=O)[C@H](Cc2ccc(OC)cc2)NC(=O)[C@H](Cc2ccc(O)cc2)NC(=O)[C@H](CC(N)=O)NC(=O)[C@H](Cc2c[nH]c3ccccc23)NC(=O)[C@H](C(C)C)NC(=O)[C@H](Cc2cccc(Cl)c2)N(C)C(=O)[C@H](C(C)C)NC(=O)[C@H](C)NC(=O)CSC[C@@H](C(=O)NCC(=O)N[C@@H](CCCCN=[N+]=[N-])C(N)=O)NC(=O)[C@H](Cc2ccc(O)cc2)N(C)C(=O)[C@H](Cc2ccc(O)cc2)NC(=O)[C@H](CCCNC(=N)N)NC(=O)[C@H](CCCCN)NC(=O)[C@H]([C@@H](C)CC)NC1=O [894_3165]
15 | 1 to 100 | CC[C@H](C)[C@@H]1NC(=O)[C@H](Cc2ccc(OC)cc2)NC(=O)[C@H](Cc2ccc(O)cc2)NC(=O)[C@H](CC(N)=O)NC(=O)[C@H](Cc2c[nH]c3ccccc23)N(C)C(=O)[C@H](C(C)C)NC(=O)[C@H](Cc2cccc(Cl)c2)N(C)C(=O)[C@H](C(C)C)NC(=O)[C@H](C)NC(=O)CSC[C@@H](C(=O)NCC(=O)N[C@@H](CCCCN=[N+]=[N-])C(N)=O)NC(=O)[C@H](Cc2ccc(O)cc2)N(C)C(=O)[C@H](Cc2ccc(O)cc2)NC(=O)[C@H](CCCNC(=N)N)NC(=O)[C@H](CCCNC(=N)N)NC(=O)[C@H]([C@@H](C)CC)NC1=O [894_3166]
